Results: US11279733B2, “Peptide antibiotics” (priority 2017, dated 2022)
In brackets after ≈: the same amount, converted by molar mass. Positions of bridges follow the written chain, without caps; N, C: chain ends. Non-standard residues stand in square brackets, D forms with d. Residues, ends and D or L forms follow the SMILES beside them. *: point of attachment. Decanoyl(3R-OH) = CCCCCCC[C@@H](O)CC(=O)*; Phe(4-NH2) = Nc1ccc(C[C@H](N)C(=O)O)cc1; X1 = CCCCCCCN1CCC(C(=O)*)CC1; dDab = NCC[C@@H](N)C(=O)O; dDap = NC[C@@H](N)C(=O)O; Dab = NCC[C@H](N)C(=O)O

Tests used:
A. baumannii ATCC 19606 = conditions: ATCC 19606
Outline: (§1)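 Mid-log cultures grown in Mueller Hinton broth at 37° C were tested by 2-fold broth microdilution at 5×10^5 CFU/mL final. Compounds were dissolved in water and tested over a final range of 32 to 0.015 μg/mL.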

E. coli ATCC 25922 = conditions: ATCC 25922
Outline: as §1

K. pneumoniae ATCC 13883 = conditions: ATCC 13883
Outline: as §1

[1] = test system: K. pneumoniae ATCC 700603, MDR; conditions: ATCC 700603
Outline: as §1

[2] = test system: K. pneumoniae ATCC BAA-2146, NDM-1 pos; conditions: ATCC BAA-2146
Outline: as §1

P. aeruginosa ATCC 27853 = conditions: ATCC 27853
Outline: as §1

[3] = test system: P. aeruginosa GN_043, PmxR
Outline: as §1

[4] = test system: P. aeruginosa GN_105, PmxR; conditions: GN 105, PmxR
Outline: as §1

[5] = test system: S. aureus ATCC 25923, MSSA; conditions: ATCC 25923
Outline: as §1

in vitro [6] = conditions: human
Outline: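 4000 cells/well, 24 h attach (37 °C, 5% CO2); compound 24 h; 5 μM resazurin 2 h, 37 °C; fluorescence ex/em 560/590. CC50 by curve fit.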

in vitro [7] = conditions: human; remark: listed apart in the source
Outline: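 HK2 cells were seeded at 2000 per well in DMEM/F12 with 10% FBS and left to attach for 24 h at 37 °C, 5% CO2. They were then exposed for 24 h to 3-fold peptide dilutions starting from 600 μM solutions in quadruplicate. LDH release was read at 450 nm, and CC50 was fitted from dose-response curves.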

in vitro [8] = conditions: human; remark: listed apart in the source
Procedure: Cytotoxicity of the synthesised peptides was evaluated by comparison with commercially available colistin (polymyxin E), polymyxin B (Sigma chemical Co., St. Louis, Mo., U.S.A.) and synthetic octapeptin C4 by conducting lactate dehydrogenase (LDH) assay. CC50 values calculated based on curve fitting of dose dependent inhibition of cell growth represented the cytotoxicity of the peptide. Human kidney 2 (HK2) cells were seeded as 2000 cells per well in a 384 well cell culture plate in a final volume of 20 μL in DMEM/F12 medium (Invitrogen #11330057), in which 10% of FBS was added. Cells were incubated for 24 hours at 37° C., 5% CO2 to allow cells to attach to the plates. Similar conditions were employed for HEK293 and HepG2 cytotoxicity assays.
Cytotoxicity to HEK293 and HepG2 cells was determined using the resazurin assay (McMillian, M. K.; Li, L.; Parker, J. B.; Patel, L.; Zhong, Z.; Gunnett, J. W.; Powers, W. J.; Johnson, M. D. An improved resazurin-based cytotoxicity assay for hepatic cells; Cell Biol. Toxicol. 2002, 18, 157-173; O'Brien, J.; Wilson, I.; Orton, T.; Pognan, F. Investigation of the Alamar Blue (resazurin) fluorescent dye for the assessment of mammalian cell cytotoxicity. Eur. J. Biochem. 2000, 267, 5421-5426). In brief, HEK293 and HepG2 cells were seeded at 4000 cells/well in black-wall, clear-bottom 384-well plates (Corning, Australia) and incubated for 24 h at 37° C., 5% CO2. Compounds were then added into each well. After 24 h incubation, 5 μM resazurin was added per well and incubated at 37° C. for 2 h. Fluorescence intensity was then read using a Polarstar Omega with excitation/emission 560/590. The data was then analyzed using GraphPad Prism 6 software. CC50 values were determined using GraphPad Prism 6 software (Inc. La Jolla, Calif.).

A. baumannii GN_093 PmxR = conditions: GN 093 PmxR
Outline: as §1

[9] = test system: K. pneumoniae GN_102 PmxR; conditions: GN 102 PmxR
Outline: as §1

[10] = test system: K. pneumoniae GN_106, PmxR; conditions: GN 106, PmxR
Outline: as §1

| Compound | MIC A. baumannii ATCC 19606 (A. baumannii ATCC 19606) | MIC E. coli ATCC 25922 (E. coli ATCC 25922) | MIC K. pneumoniae ATCC 13883 (K. pneumoniae ATCC 13883) | MIC K. pneumoniae ATCC 700603, MDR [1] | MIC K. pneumoniae ATCC BAA-2146, NDM-1 pos [2] | MIC P. aeruginosa ATCC 27853 (P. aeruginosa ATCC 27853) | MIC P. aeruginosa GN_043, PmxR [3] | MIC P. aeruginosa GN_105, PmxR [4] | MIC S. aureus ATCC 25923, MSSA [5] | CC50 at 24 h (in vitro [6]) | CC50 at 24 h (in vitro [7]) | CC50 at 24 h (in vitro [8]) | other results |
| --- | --- | --- | --- | --- | --- | --- | --- | --- | --- | --- | --- | --- | --- |
| CCCCCCCN1CCC(C(=O)N[C@H](CCN)C(=O)N[C@H]2CCNC(=O)[C@H](CC(C)C)NC(=O)[C@H](CCN)NC(=O)[C@H](CCN)NC(=O)[C@H](Cc3ccccc3)NC(=O)[C@@H](CC(C)C)NC(=O)[C@H](CCN)NC2=O)CC1 [compound 6516, 1-heptylpiperidine-4-carboxylic acid-D-Dab-cyc[L-Dab-L-Dab-D-Leu-L-Phe-L-Dab-L-Dab-L-Leu]] (X1-[dDab][Dab][Dab][dL]F[Dab][Dab]L; lactam 2-C) | >32 µg/mL | 16 µg/mL (≈ 14.8 µM) | >32 µg/mL | >32 µg/mL | 32 µg/mL (≈ 29.5 µM) | 1 µg/mL (≈ 0.923 µM) | 0.5 µg/mL (≈ 0.461 µM) | 2 µg/mL (≈ 1.85 µM) | 32 µg/mL (≈ 29.5 µM) | > 300 µM | 223 µM | > 300 µM | – |
| CCCCCCC[C@@H](O)CC(=O)N[C@H](CN)C(=O)N[C@H]1CCNC(=O)[C@H](CC(C)C)NC(=O)[C@H](CCN)NC(=O)[C@H](CCN)NC(=O)[C@H](Cc2ccccc2)NC(=O)[C@@H](CC(C)C)NC(=O)[C@H](CCN)NC1=O [compound 6427, 3(R)OH-nC9CO-D-Dap-cyc[L-Dab-L-Dab-D-Leu-L-Phe-L-Dab-L-Dab-L-Leu]] ({Decanoyl(3R-OH)}-[dDap][Dab][Dab][dL]F[Dab][Dab]L; lactam 2-C) | 8 µg/mL (≈ 7.76 µM) | 8 µg/mL (≈ 7.76 µM) | 8 µg/mL (≈ 7.76 µM) | 8 µg/mL (≈ 7.76 µM) | 8 µg/mL (≈ 7.76 µM) | 4 µg/mL (≈ 3.88 µM) | 4 µg/mL (≈ 3.88 µM) | 2 µg/mL (≈ 1.94 µM) | 32 µg/mL (≈ 31.1 µM) | > 300 µM | 123 µM | > 300 µM | MIC A. baumannii GN_093 PmxR (A. baumannii GN_093 PmxR): 16 µg/mL (≈ 15.5 µM); MIC K. pneumoniae GN_102 PmxR [9]: 4 µg/mL (≈ 3.88 µM); MIC K. pneumoniae GN_106, PmxR [10]: 4 µg/mL (≈ 3.88 µM) |
| CCCCCCC[C@@H](O)CC(=O)N[C@H](CCN)C(=O)N[C@H]1CCNC(=O)[C@H](CC(C)C)NC(=O)[C@H](CCN)NC(=O)[C@H](CCN)NC(=O)[C@H](CC(C)C)NC(=O)[C@@H](Cc2ccccc2)NC(=O)[C@H](Cc2ccc(N)cc2)NC1=O [compound 8635, 3(R)OH-nC9CO-D-Dab-cyc[L-Dab-L-4NH2Phe-D-Phe-L-Leu-L-Dab-L-Dab-L-Leu]] ({Decanoyl(3R-OH)}-[dDab][Dab][Phe(4-NH2)][dF]L[Dab][Dab]L; lactam 2-C) | – | – | – | – | – | – | – | – | – | > 300 µM | 219 µM | > 300 µM | MIC, A. baumannii ATCC 19606 (A. baumannii ATCC 19606): >32 µg/mL; MIC, A. baumannii Cl Ptyela 10073 4512:2, PmxR (A. baumannii GN_093 PmxR): >32 µg/mL; MIC, E. coli ATCC 25922 (E. coli ATCC 25922): 16 µg/mL (≈ 14.5 µM); MIC, K. pneumoniae ATCC 13883 (K. pneumoniae ATCC 13883): >32 µg/mL; MIC, K. pneumoniae ATCC 700603, MDR [1]: 32 µg/mL (≈ 28.9 µM); MIC, K. pneumoniae ATCC BAA-2146, NDM-1 pos [2]: 16 µg/mL (≈ 14.5 µM); MIC, K. pneumoniae Cl Koprana 10065 0661:1, PmxR [9]: >32 µg/mL; MIC, K. pneumoniae Cl 138-16347-20362, PmxR [10]: >32 µg/mL; MIC, P. aeruginosa ATCC 27853 (P. aeruginosa ATCC 27853): 16 µg/mL (≈ 14.5 µM); MIC, P. aeruginosa FADDI-PA070, PmxR ([3]; Table 5, polymyxin-resistant): 16 µg/mL (≈ 14.5 µM); MIC, P. aeruginosa PA9704, PmxR [4]: >32 µg/mL; MIC, S. Aureus ATCC 25923, MSSA [5]: 32 µg/mL (≈ 28.9 µM) |
